Laboratory results reported in PMC11847541, “Liver fatty acid binding protein FABP1 transfers substrates to cytochrome P450 4A11 for catalysis” (The Journal of Biological Chemistry, 2025).

Assays:
[1] = target: T1, DAUDA–FABP1 (Homo sapiens, UniProt P07148); test: Stopped-flow kinetics of palmitate binding to DAUDA–FABP1
T1 construct: GST (N, cleaved yes); made in house; host or cells: Escherichia coli DH5α
T1 sequence (P07148 with tags, fused parts or gaps): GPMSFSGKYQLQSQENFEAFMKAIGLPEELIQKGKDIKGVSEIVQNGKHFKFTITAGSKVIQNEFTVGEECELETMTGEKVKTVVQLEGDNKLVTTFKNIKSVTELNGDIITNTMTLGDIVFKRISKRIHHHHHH
Description: As mentioned previously, palmitate was selected to measure binding kinetics to DAUDA–FABP1 because of the low Kd observed with the protein (Fig. 5D, Table 1). When a ligand binds to DAUDA-bound FABP1, DAUDA is displaced (potentially to the second ligand-binding site, forming a ternary complex; Figure 2, Figure 5 and Figure 2, Figure 5A) and attenuates the fluorescence of the system (Fig. 5). Taking advantage of this phenomenon, we preincubated FABP1 (0.5 μM) with DAUDA (0.5 μM) to form the fluorescent complex. This complex was then rapidly mixed with palmitate (0.5 μM to 25 μM), and the attenuation of fluorescence was monitored as palmitate binds and displaces DAUDA. The data were fit to double exponential equations, and the rate of initial binding was not observed to vary with palmitate concentration (Fig. 7). A kon value (k5) of 2.3 ± 0.2 × 10^7 M^−1 s^−1 was calculated from the data (Fig. 7A).
Figure 7 Kinetics of binding of palmitate to FABP1. A stoichiometric mixture of DAUDA and FABP1 (0.5 μM) was rapidly combined with (A) 0.5 μM, (B) 5 μM, (C) 12.5 μM, and (D) 25 μM palmitate, and the attenuation of fluorescence (λex = 335 nm, λem > 420 nm) was monitored over time (as FD → FDS, Fig. 5A). The plots were fit to double exponential equations, and the following rate constants for each phase were extracted: A, k1 11 ± 1 s^−1, k2 0.04 ± 0.003 s^−1; B, k1 16± 1s^−1, k2 0.017 ± 0.004 s^−1; C, k1 14 ± 1 s^−1, k2 0.05 ± 0.01 s^−1; D, k1 13 ± 1 s^−1, k2 0.07 ± 0.01 s^−1. Each trace corresponds to ≥6 averaged replicate traces. DAUDA, 11-dansylaminoundecanoic acid; FABP1, fatty acid binding protein.
The kon determination of FABP1 with palmitate was done in the same manner as described with DAUDA but with the modification that the solutions mixed in the stopped-flow spectrofluorometer were (A) FABP1 (1 μM) and DAUDA (1 μM, aliquoted from a stock solution prepared in K2CO3 [50 mM], see “Preparation of DAUDA stock solutions”) and (B) palmitate (1–50 μM, aliquoted from a stock solution prepared in K2CO3 [50 mM]). Both mixing solutions (2 ml) were prepared in potassium phosphate buffer (100 mM, pH 7.4). The data collection, processing, and analysis proceeded via the same steps described earlier. The only difference in interpretation is that the signal (binding of palmitate) displaces DAUDA in the FABP1-binding site, so we observe an attenuation of fluorescence.

[2] = target: T2, FABP1 (Homo sapiens, UniProt P07148); design: method as in PMID 10852718; conditions: ADIFAB system; cited from earlier work
T2 construct: GST (N, cleaved yes); made in house; host or cells: Escherichia coli DH5α
T2 sequence (P07148 with tags, fused parts or gaps): T1 sequence (P07148 with tags, fused parts or gaps)

For `CCCCCCCCCCCCCCCC(=O)O` [Palmitate (C16), palmitate], the “k1 (fast phase), palmitate binding to DAUDA–FABP1” value (shortened to “k1 (fast phase), palmitate binding”) ([1]; 0.5 μM palmitate) was 11 ± 1 s⁻¹, the “k2 (slow phase), palmitate binding to DAUDA–FABP1” value (from here on “k2 (slow phase), palmitate binding”) ([1]; 0.5 μM palmitate) was 0.04 ± 0.003 s⁻¹ and the “k1 (fast phase), palmitate binding” value ([1]; 5 μM palmitate) was 16 ± 1 s⁻¹. For the same compound, the “k2 (slow phase), palmitate binding” value ([1]; 5 μM palmitate) was 0.017 ± 0.004 s⁻¹, the “k1 (fast phase), palmitate binding” value ([1]; 12.5 μM palmitate) was 14 ± 1 s⁻¹ and the “k2 (slow phase), palmitate binding” value ([1]; 12.5 μM palmitate) was 0.05 ± 0.01 s⁻¹. For the same compound, the “k1 (fast phase), palmitate binding” value ([1]; 25 μM palmitate) was 13 ± 1 s⁻¹, the “k2 (slow phase), palmitate binding” value ([1]; 25 μM palmitate) was 0.07 ± 0.01 s⁻¹ and the kon ([1]; DAUDA and FABP1 0.5 μM each, read-out: kon of palmitate to DAUDA–FABP1 (k5)) was 2.3e+07 M⁻¹ s⁻¹. The Kd [2] was 60 nM.
